Results on eleven molecules are retold here after patent publication US20230117034A1, “PYRAZOLOTRIAZINES” (Bayer Aktiengesellschaft, priority 2019, published 2023).

Where only a bound is given, the exact number is not on record here.

Test [1] addresses T1, CDK9/CycT1 (Homo sapiens, UniProt P50750).
T1 construct: Recombinant full-length His-tagged human CDK9 and CycT1; purchased Life Technologies PV4131; host or cells: insect cells
The experiment in a line: CDK9/CycT1 high ATP kinase assay (TR-FRET, 2 mM ATP). Format: biochemical. Particulars: 2 mM ATP (high ATP); median; read-out: CDK9/CyclinT1, 2 mM ATP (high ATP), IC50 (median). An outline of the steps:
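Full-length His-tagged human CDK9/CycT1 (insect cell, ~0.5 μg/mL) preincubated 15 min at 22 °C with compound in Tris pH 8.0, MgCl2, DTT buffer before reaction with biotinylated peptide substrate at high ATP (2 mM).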

Test [2] addresses T2, CDK2/CycE (Homo sapiens, UniProt P24941).
T2 construct: purchased ProQinase GmbH (Freiburg, Germany); host or cells: insect cells (Sf9)
As to the kind of experiment: CDK2/CycE kinase assay (TR-FRET, 2 mM ATP). In kind it is biochemical. The note with it: 2 mM ATP (high ATP); median; read-out: CDK2/CyclinE, 2 mM ATP (high ATP), IC50 (median). An outline of the steps:
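Biotin-peptide phosphorylation (0.75 µM substrate, 2 mM ATP final, 25 min, 22 °C) by Sf9-expressed GST-CDK2/GST-CycE, after a 15-min compound pre-binding step. Inhibition scaled between enzyme-free (100%) and uninhibited (0%) wells.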

T1 sequence (P50750 whole entry): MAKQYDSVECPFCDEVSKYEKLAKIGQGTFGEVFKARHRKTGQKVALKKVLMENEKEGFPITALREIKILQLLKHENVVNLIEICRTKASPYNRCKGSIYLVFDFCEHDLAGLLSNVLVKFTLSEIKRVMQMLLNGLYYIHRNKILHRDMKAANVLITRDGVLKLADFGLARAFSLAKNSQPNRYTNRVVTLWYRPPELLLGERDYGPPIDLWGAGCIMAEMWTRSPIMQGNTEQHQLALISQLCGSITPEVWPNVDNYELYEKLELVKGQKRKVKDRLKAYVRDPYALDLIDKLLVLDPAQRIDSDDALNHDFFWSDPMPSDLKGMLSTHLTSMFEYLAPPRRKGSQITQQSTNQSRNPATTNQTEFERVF
T1 sequence (O60563 whole entry partner): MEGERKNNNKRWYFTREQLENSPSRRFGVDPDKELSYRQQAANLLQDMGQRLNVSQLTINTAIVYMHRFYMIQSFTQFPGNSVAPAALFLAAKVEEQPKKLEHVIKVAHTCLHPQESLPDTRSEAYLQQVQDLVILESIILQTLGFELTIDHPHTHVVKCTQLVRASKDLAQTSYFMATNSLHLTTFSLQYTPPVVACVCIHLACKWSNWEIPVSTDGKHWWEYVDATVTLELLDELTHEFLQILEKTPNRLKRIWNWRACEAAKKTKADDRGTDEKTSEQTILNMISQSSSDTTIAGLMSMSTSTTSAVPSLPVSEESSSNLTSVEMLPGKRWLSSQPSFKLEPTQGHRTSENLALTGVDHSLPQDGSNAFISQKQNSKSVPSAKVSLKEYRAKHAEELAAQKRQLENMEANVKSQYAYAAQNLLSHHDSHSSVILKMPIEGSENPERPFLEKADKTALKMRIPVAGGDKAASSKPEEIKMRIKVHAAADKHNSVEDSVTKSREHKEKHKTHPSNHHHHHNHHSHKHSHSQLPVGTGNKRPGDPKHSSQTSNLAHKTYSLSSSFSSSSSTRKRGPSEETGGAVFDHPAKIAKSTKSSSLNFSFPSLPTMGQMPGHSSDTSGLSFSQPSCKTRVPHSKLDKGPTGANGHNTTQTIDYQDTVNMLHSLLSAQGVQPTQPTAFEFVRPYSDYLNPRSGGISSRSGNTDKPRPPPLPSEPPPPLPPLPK

Consider `Cc1cc(-c2cnn3c(NCc4nc5ccccc5[nH]4)nc(N4CCN(C)CC4)nc23)ccn1` [Example 243, N-[(1H-benzimidazol-2-yl)methyl]-2-(4-methylpiperazin-1-yl)-8-(2-methylpyridin-4-yl)pyrazolo[1,5-a][1,3,5]triazin-4-amine], for which the IC50 in test [1] and in test [2] was greater than 20 µM throughout.

`COCCNc1nc(NCc2nc3ccccc3[nH]2)n2ncc(Br)c2n1` [Example 230, N4-(1H-benzimidazol-2-ylmethyl)-8-bromo-N2-(2-methoxyethyl)pyrazolo[1,5-a][1,3,5]triazine-2,4-diamine]: the IC50 is greater than 20 µM in test [1] and 10.1 µM in test [2].

Consider `CO[C@H]1CCN(c2nc(NCc3nc4ccccc4[nH]3)n3ncc(Br)c3n2)C1` [Example 222, N-[(1H-benzimidazol-2-yl)methyl]-8-bromo-2-[(3S)-3-methoxypyrrolidin-1-yl]pyrazolo[1,5-a][1,3,5]triazin-4-amine], for which the values for the IC50 in test [1] and in test [2] were greater than 20 µM and 14.6 µM, respectively.

Take `CN(CCO)c1nc(NCc2nc3ccccc3[nH]2)n2ncc(Br)c2n1` [Example 237, 2-[(4-{[(1H-benzimidazol-2-yl)methyl]amino}-8-bromopyrazolo[1,5-a][1,3,5]triazin-2-yl)(methyl)amino]ethan-1-ol]: the figures for the IC50 in test [1] and in test [2] were greater than 20 µM and 4.94 µM, respectively.

As for `CN1CC2CCC(C1)N2c1nc(NCc2nc3ccccc3[nH]2)n2ncc(Br)c2n1` [Example 226, N-(1H-benzimidazol-2-ylmethyl)-8-bromo-2-(3-methyl-3,8-diazabicyclo[3.2.1]octan-8-yl)pyrazolo[1,5-a][1,3,5]triazin-4-amine], the IC50 in test [1] and in test [2] was greater than 20 µM in each case.

In the case of `CN(C)[C@H]1CCN(c2nc(NCc3nc4ccccc4[nH]3)n3ncc(Br)c3n2)C1` [Example 177, N-[(1H-benzimidazol-2-yl)methyl]-8-bromo-2-[(3S)-3-(dimethylamino)pyrrolidin-1-yl]pyrazolo[1,5-a][1,3,5]triazin-4-amine], the IC50 in test [1] and in test [2] was greater than 20 µM each time.

On to `CCN(C)c1nc(NCc2nc3ccccc3[nH]2)n2ncc(Br)c2n1` [Example 233, N4-(1H-benzimidazol-2-ylmethyl)-8-bromo-N2-ethyl-N2-methyl-pyrazolo[1,5-a][1,3,5]triazine-2,4-diamine], for which the IC50 was greater than 20 µM in test [1] and 5.35 µM in test [2].

In the case of `Brc1cnn2c(NCc3nc4ccccc4[nH]3)nc(NCCN3CCCC3)nc12` [Example 235, N4-(1H-benzimidazol-2-ylmethyl)-8-bromo-N2-(2-pyrrolidin-1-ylethyl)pyrazolo[1,5-a][1,3,5]triazine-2,4-diamine], the IC50 in test [1] and in test [2] was greater than 20 µM in each case.

`CN(C)[C@@H]1CCN(c2nc(NCc3nc4ccccc4[nH]3)n3ncc(Br)c3n2)C1` [Example 178, N-[(1H-benzimidazol-2-yl)methyl]-8-bromo-2-[(3R)-3-(dimethylamino)pyrrolidin-1-yl]pyrazolo[1,5-a][1,3,5]triazin-4-amine]: the IC50 in test [1] and in test [2] was greater than 20 µM in each case.

For the molecule `OCCNc1nc(NCc2nc3ccccc3[nH]2)n2ncc(Br)c2n1` [Example 228, 2-[(4-{[(1H-benzimidazol-2-yl)methyl]amino}-8-bromopyrazolo[1,5-a][1,3,5]triazin-2-yl)amino]ethan-1-ol], the IC50 in test [1] was greater than 20 µM; in test [2], 9.21 µM.

Regarding `CN(CCN1CCCC1)c1nc(NCc2nc3ccccc3[nH]2)n2ncc(Br)c2n1` [Example 239, N4-(1H-benzimidazol-2-ylmethyl)-8-bromo-N2-methyl-N2-(2-pyrrolidin-1-ylethyl)pyrazolo[1,5-a][1,3,5]triazine-2,4-diamine], the IC50 in test [1] and in test [2] was greater than 20 µM in each case.
